Test: solvent given as SMILES
[1] = in CCCCCCCCC=CCCCCCCCC(=O)OCC(COC(=O)CCCCCCCC=CCCCCCCCC)OC(=O)CCCCCCCC=CCCCCCCCC

## CCCCl
In Brc1cccc2ccccc12
  solvation free energy, 298 K: -3.29 kcal/mol
In C1CCOC1
  solvation free energy, 298 K: -3.88 kcal/mol
In C1CCOCC1
  solvation free energy, 298 K: -3.79 kcal/mol
In C=CCCCCCCCCCCCCCC
  solvation free energy, 298 K: -3.01 kcal/mol
In CC(=O)OCc1ccccc1
  solvation free energy, 298 K: -3.4 kcal/mol
In CC(C)CC(C)(C)C
  solvation free energy, 298 K: -3.2 kcal/mol
In CCC(C)=O
  solvation free energy, 298 K: -3.68 kcal/mol
In CCCCCC
  solvation free energy, 298 K: -3.37 kcal/mol
In CCCCCCC
  solvation free energy, 298 K: -3.27 kcal/mol
In CCCCCCCC
  solvation free energy, 298 K: -3.22 kcal/mol
[1]
  solvation free energy, 298 K: -3.25 kcal/mol
In CCCCCCCCCCCCCCCC
  solvation free energy, 298 K: -3.01 kcal/mol
In CCCCCCCCO
  solvation free energy, 298 K: -3.06 kcal/mol
In CCCCCl
  solvation free energy, 298 K: -3.68 kcal/mol
In CCCCO
  solvation free energy, 298 K: -3.16 kcal/mol
In CCOC(C)=O
  solvation free energy, 298 K: -3.68 kcal/mol
In Cc1ccc(C)cc1
  solvation free energy, 298 K: -3.58 kcal/mol
In ClC(Cl)(Cl)Cl
  solvation free energy, 298 K: -3.7 kcal/mol
In ClC(Cl)Cl
  solvation free energy, 298 K: -3.62 kcal/mol
In ClCCCl
  solvation free energy, 298 K: -3.7 kcal/mol
In O
  solvation free energy, 298 K: -0.37 kcal/mol
In O=C1CCCCC1
  solvation free energy, 298 K: -3.67 kcal/mol
In [2H]O[2H]
  solvation free energy, 298 K: -0.74 kcal/mol
In c1ccc2ncccc2c1
  solvation free energy, 298 K: -3.35 kcal/mol

## CCCCCCCCBr
In O
  solvation free energy, 298 K: 0.52 kcal/mol

## C=CC=CC
In N#Cc1ccccc1
  solvation free energy, 298 K: -3.26 kcal/mol

## CN1CCCC1=O
In C1CCCCC1
  solvation free energy, 298 K: -5.73 kcal/mol
In CC(C)CC(C)(C)C
  solvation free energy, 298 K: -5.93 kcal/mol
In O
  solvation free energy, 298 K: -7.83 kcal/mol
In c1ccccc1
  solvation free energy, 298 K: -6.83 kcal/mol

## CCOC(C)OCC
In ClCCCl
  solvation free energy, 298 K: -5.27 kcal/mol
In O
  solvation free energy, 298 K: -3.28 kcal/mol

## CC1=CC2C(CCC(C)=CCC1)C2(C)C (stereo not given)
In O
  solvation free energy, 298 K: -0.52 kcal/mol

## C#CCCCCC
In C1CCC2CCCCC2C1
  solvation free energy, 298 K: -4.37 kcal/mol
In C1CCC(C2CCCCC2)CC1
  solvation free energy, 298 K: -4.33 kcal/mol
In CN(C)C=O
  solvation free energy, 298 K: -4.37 kcal/mol
In CS(C)=O
  solvation free energy, 298 K: -3.95 kcal/mol
In N#CCCCCC#N
  solvation free energy, 298 K: -3.83 kcal/mol
In NCCO
  solvation free energy, 298 K: -2.8 kcal/mol
In O
  solvation free energy, 298 K: 0.59 kcal/mol
In O=Cc1ccco1
  solvation free energy, 298 K: -4.12 kcal/mol
In OCc1ccco1
  solvation free energy, 298 K: -3.93 kcal/mol
In c1ccc2c(c1)CCCC2
  solvation free energy, 298 K: -4.66 kcal/mol
In c1ccc(C2CCCCC2)cc1
  solvation free energy, 298 K: -4.56 kcal/mol

## CC(=O)CC(=O)C(F)(F)F
In O
  solvation free energy, 298 K: -4.91 kcal/mol

## O=[N+]([O-])c1c(Cl)c(Cl)c(Cl)c(Cl)c1Cl
[1]
  solvation free energy, 298 K: -10.5 kcal/mol

## CCCCCCCBr
In O
  solvation free energy, 298 K: 0.34 kcal/mol

## C=C(C)C1CC=C(C)C(OC(C)=O)C1 (stereo not given)
In O
  solvation free energy, 298 K: -4 kcal/mol

## O=C(O)c1ccc(Cl)c([N+](=O)[O-])c1
In C1CCOC1
  solvation free energy, 298 K: -14.2 kcal/mol
In C1COCCO1
  solvation free energy, 298 K: -14.2 kcal/mol
In CC(C)(C)O
  solvation free energy, 298 K: -13.3 kcal/mol
In CC(C)CCO
  solvation free energy, 298 K: -13.1 kcal/mol
In CC(C)CO
  solvation free energy, 298 K: -12.9 kcal/mol
In CC(C)O
  solvation free energy, 298 K: -13.4 kcal/mol
In CCC(C)O
  solvation free energy, 298 K: -13.2 kcal/mol
In CCCC(=O)OC
  solvation free energy, 298 K: -13 kcal/mol
In CCCC(C)O
  solvation free energy, 298 K: -13.2 kcal/mol
In CCCCCCCCCCO
  solvation free energy, 298 K: -12.9 kcal/mol
In CCCCCCCCO
  solvation free energy, 298 K: -13.1 kcal/mol
In CCCCCCCO
  solvation free energy, 298 K: -13.1 kcal/mol
In CCCCCCO
  solvation free energy, 298 K: -13.1 kcal/mol
In CCCCCO
  solvation free energy, 298 K: -13.2 kcal/mol
In CCCCO
  solvation free energy, 298 K: -13.2 kcal/mol
In CCCCOC(C)=O
  solvation free energy, 298 K: -13.1 kcal/mol
In CCCO
  solvation free energy, 298 K: -13.3 kcal/mol
In CCCOC(C)=O
  solvation free energy, 298 K: -12.8 kcal/mol
In CCO
  solvation free energy, 298 K: -13.5 kcal/mol
In CCOC(C)=O
  solvation free energy, 298 K: -13.3 kcal/mol
In CCOCC
  solvation free energy, 298 K: -13.1 kcal/mol
In CN(C)C=O
  solvation free energy, 298 K: -14.1 kcal/mol
In COC(C)=O
  solvation free energy, 298 K: -13.4 kcal/mol
In O
  solvation free energy, 298 K: -9.84 kcal/mol

## CCOC(=O)c1ccccc1O
In O
  solvation free energy, 298 K: -3.82 kcal/mol

## Clc1ccc(-c2ccccc2)cc1
[1]
  solvation free energy, 298 K: -9.7 kcal/mol
In CCCCCCCCO
  solvation free energy, 298 K: -9.25 kcal/mol
In O
  solvation free energy, 298 K: -2.44 kcal/mol

## Cc1ccc(C)c2ccccc12
In O
  solvation free energy, 298 K: -2.82 kcal/mol

## C=C(C)c1ccccc1
In CC(C)=O
  solvation free energy, 298 K: -6.37 kcal/mol
In O
  solvation free energy, 298 K: -1.28 kcal/mol

## Nc1cnn(-c2ccccc2)c(=O)c1Cl
In O
  solvation free energy, 298 K: -16.4 kcal/mol

## C1CCOCC1
In C1COCCO1
  solvation free energy, 298 K: -4.53 kcal/mol
In CC(C)CCl
  solvation free energy, 298 K: -4.65 kcal/mol
In CCC(C)Cl
  solvation free energy, 298 K: -4.65 kcal/mol
In CCCCCCCCCCCCCCCC
  solvation free energy, 298 K: -3.89 kcal/mol
In CCCCCCCCO
  solvation free energy, 298 K: -4.34 kcal/mol
In CCCCCl
  solvation free energy, 298 K: -4.71 kcal/mol
In O
  solvation free energy, 298 K: -3.12 kcal/mol
In [2H]O[2H]
  solvation free energy, 298 K: -3.08 kcal/mol

## ClC(Cl)(Cl)C(Cl)(Cl)Cl
[1]
  solvation free energy, 298 K: -5.42 kcal/mol
In CCCCCCCCO
  solvation free energy, 298 K: -6.1 kcal/mol

## FC(Cl)C(F)(F)F (stereo not given)
In CCCCCCCCO
  solvation free energy, 298 K: -1.67 kcal/mol
In CN1CCCC1=O
  solvation free energy, 298 K: -2.39 kcal/mol
In CN(C)C=O
  solvation free energy, 298 K: -2.44 kcal/mol
In O
  solvation free energy, 298 K: 0.79 kcal/mol

## CC(=O)N(C)C
In C1CCCCC1
  solvation free energy, 298 K: -4.97 kcal/mol
In C=CCCCCCCC=C
  solvation free energy, 298 K: -5.22 kcal/mol
In CC(C)CC(C)(C)C
  solvation free energy, 298 K: -5.19 kcal/mol
In CCCCCCCCCCCCCCCC
  solvation free energy, 298 K: -4.26 kcal/mol
In O
  solvation free energy, 298 K: -8.15 kcal/mol
In [2H]O[2H]
  solvation free energy, 298 K: -7.78 kcal/mol
In c1ccccc1
  solvation free energy, 298 K: -6.41 kcal/mol

## ClCCOCCCl
In O
  solvation free energy, 298 K: -4.23 kcal/mol

## CCCCCCCCCCCCCCCCCCCC
In CC(=O)N(C)C
  solvation free energy, 298 K: -13.6 kcal/mol
In CC(C)(C)O
  solvation free energy, 298 K: -12.4 kcal/mol
In CCC(C)=O
  solvation free energy, 298 K: -12.6 kcal/mol
[1]
  solvation free energy, 298 K: -12.5 kcal/mol
In CCCCOC(C)=O
  solvation free energy, 298 K: -12.9 kcal/mol
In CCO
  solvation free energy, 298 K: -11.4 kcal/mol
In CN(C)C=O
  solvation free energy, 298 K: -13.6 kcal/mol
In COC(C)(C)C
  solvation free energy, 298 K: -13.5 kcal/mol
In O
  solvation free energy, 298 K: 4.52 kcal/mol

## Cc1cccc2ccccc12
In CCO
  solvation free energy, 298 K: -7.47 kcal/mol
In O
  solvation free energy, 298 K: -2.32 kcal/mol
In OCCOCCO
  solvation free energy, 298 K: -7.33 kcal/mol

## CC(=O)c1ccc(C)cc1
In O
  solvation free energy, 298 K: -4.7 kcal/mol

Reference: the CombiSolv-Exp solvation set (Vermeire and Green 2021)
